Measurements reported in US10815264B2, “Nucleotides for the treatment of cancer” (IDENIX PHARMACEUTICALS LLC, priority 2015, dated 2020).
Where two headings read alike, the source gives them in different places.

What was measured:
HepG2 = experiment: In vitro inhibition, CellTiter-Glo (CTG) assay, 72 hr exposure; assay type: cell-based; conditions: HepG2, 72 hr
Description: (§1) Cells were grown in RPMI-1640 supplemented with L-Glutamine and 10% FBS of the following cell lines:
(§2) CCRF-CEM; CCRF-CEM-cytarabine resistant; HL-60; K562; CFPAC-1; MiaPACA-2; BxPC-3; PANC-1; HepG2; MDA-MB-231; HCT-116; A498; and NCI-H69
(§3) 18, 96 well plates of each cell line were seeded with the optimized number of cells per well in a total volume of 50 μL per well. The plates were left overnight. Plate wells were seeded with 100 μL media for media control. The following day, cells were exposed to test compounds as described below. At the same time as drug exposure, a CTG assay was conducted on the 18th plate for the 0 hr count.
(§4) The compounds were added to cells and medium already on the plate to give desired final concentrations. 50 μL media were added to cell control wells, and 50 μL of mix added to vehicle control wells. 10 μM Doxorubicin was added to appropriate wells. Cells exposed to test compound were incubated at 37° C. for 72 hr followed by a CTG assay.
(§5) At the end of the 72 hr exposure period, plates were removed for a CellTiter-Glo (CTG) assay from a 37° C., 5% CO2 incubator and placed on the bench at room temperature for 30 mins. 100 μL of CellTiter-Glo reagent was added and mixed for 2 mins, followed by a further 10 min incubation at room temperature. Luminescence was recorded using Synergy 4.0.

NCI-H69 = experiment: as above; assay type: cell-based
Description: as §1, §2, §3, §4, §5

CCRF-CEM = experiment: as above; assay type: cell-based
Description: as §1, §2, §3, §4, §5

MDA-MB-231 = experiment: as above; assay type: cell-based; conditions: MDA-MB-231, 72 hr
Description: as §1, §2, §3, §4, §5

[1] = tested on: CCRF-CEM-cytarabine resistant; experiment: as above; assay type: cell-based
Description: as §1, §2, §3, §4, §5

HL-60 = experiment: as above; assay type: cell-based
Description: as §1, §2, §3, §4, §5

A498 = experiment: as above; assay type: cell-based
Description: as §1, §2, §3, §4, §5

PANC-1 = experiment: as above; assay type: cell-based; conditions: PANC-1, 72 hr
Description: as §1, §2, §3, §4, §5

HCT-116 = experiment: as above; assay type: cell-based
Description: as §1, §2, §3, §4, §5

MiaPACA-2 = experiment: as above; assay type: cell-based
Description: as §1, §2, §3, §4, §5

BxPC-3 = experiment: as above; assay type: cell-based
Description: as §1, §2, §3, §4, §5

CFPAC-1 = experiment: as above; assay type: cell-based
Description: as §1, §2, §3, §4, §5

K562 = experiment: as above; assay type: cell-based; conditions: K562, 72 hr
Description: as §1, §2, §3, §4, §5

[2] = tested on: live leukemic cells of AML patient samples (bone marrow or peripheral blood); experiment: Ex-vivo effect on AML patient samples, depletion of live leukemic cells by flow cytometry; assay type: cell-based, human; conditions: plates incubated for 48 hours
Description: Patient samples were obtained from a non-interventional and prospective study. The study included samples from adult patients over 18 years of age who were diagnosed with Acute Myeloid Leukemia (AML).
In one embodiment, the method of data acquisition was performed as follows: on day 1 bone marrow (BM) or peripheral blood (PB) patient sample was received. A small part was separated from the rest of the sample for validation, while the majority of the sample was diluted with culture media and plated into 96-well plates previously prepared with the desired compounds and compound combinations, e.g., a compound or compound combination described herein. The number of live leukemic cells seeded in each well was fixed between 8000 and 32000, depending on the percentage of leukemic cells for each sample. […] Antibodies were added to identify leukemic cells using a gating strategy based on FSC/SSC and expression or lack of expression of different surface markers. The monoclonal antibodies selection was performed to optimize the identification of leukemic cell in each sample.
In one embodiment, non-limiting examples of biomarkers such as the biomarkers CD34, CD45, CD117, and HLADR known as “backbone markers” for AML (van Dongen, J. J. and A. Orfao, EuroFlow: Resetting leukemia and lymphoma immunophenotyping. Basis for companion diagnostics and personalized medicine, Leukemia, 2012, 26, 1899-907) were included in the combination.
In one embodiment, antibody combinations such as CD117/CD45, CD34/CD45, and HLADR/CD45 were used. Live leukemic cells were identified by their light scatter properties (FSC^int/hi/SSC^int) in the absence of Annexin-V-FITC staining. FSC/SSC selection was performed to exclude debris. The average percentage of cell viability upon receipt of the sample was 80% and samples were only processed if the viability was greater than 50%.
In one embodiment, sample validation was performed as follows: BM and PB samples were extracted under sterile conditions and received in the laboratory within 24 hours of extraction. Initial analysis evaluated the number of pathological cells and their viability. Different volumes of sample (1 μL, 3 μL, 5 μL and 7 μL) were aliquoted in duplicate into a 96-well plate. To lyse red blood cells, 180 μL of ammonium chloride lysis solution was added to each well (2 g KHCO3, 16.58 g NH4Cl, 0.074 g Na2EDTA.2H2O, H2O to 1 L). Following a 10 min incubation period at 4° C., plate was centrifuged for 5 min at 1200 rpm and the supernatant removed. The lysis step was performed twice. To analyze, 20 μL of a combination of Annexin V-FITC (Immunostep, Salamanca, Spain), binding buffer (BB, 2.4 g HEPES, 8.19 g NaCl, 0.37 g Cl2Ca, H2O to 1 L), and the following monoclonal antibodies (mAb) were added to each well: CD117 (clone 104D2)-PE (Becton Dickinson, San Jose, Calif., US), CD34 (clone 581)-PerCP (BioLegend, San Diego, Calif., US), HLADR (clone L243)-PB (BioLegend) and CD45 (HI30)-PO (Life Technologies, Carlsbad, Calif., US) (van Dongen, J. J., et al., EuroFlow antibody panels for standardized n-dimensional flow cytometric immunophenotyping of normal, reactive and malignant leukocytes, Leukemia, 2012, 26, 1908-75). After 15 min of incubation at room temperature in the dark, a wash step was performed using binding buffer solution. The pellet was resuspended in 30 μL BB for analysis in Vivia's ExviTech© platform. Cell count and viability upon arrival were computed and the optimal volume of sample to use per well was determined.
In one embodiment, the assay was performed according to following method: the whole sample was diluted with RPMI 1640, supplemented with 20% (v/v) FBS (Thermo Scientific, Waltham, Mass., US), 2% HEPES, 1% antibiotic (Zell Shield, Labclinics, Barcelona, Spain) and 1% L-glutamine 200 mM (Lonza, Hopkinton, Mass., US) to a final volume of 60 μL per well. […]

| Compound | IC50 (HepG2) [µM] | IC50 (NCI-H69; NCI-H69, 72 hr) [µM] | IC50 (CCRF-CEM) [µM] | IC50 (MDA-MB-231) [µM] | IC50 [1] [µM] | IC50 (HL-60; HL-60, 72 hr) [µM] | IC50 (A498; A498, 72 hr) [µM] | IC50 (PANC-1) [µM] | IC50 (HCT-116; HCT-116, 72 hr) [µM] | IC50 (MiaPACA-2; MiaPACA-2, 72 hr) [µM] | IC50 (BxPC-3; BxPC-3, 72 hr) [µM] | IC50 (CFPAC-1; CFPAC-1, 72 hr) [µM] | IC50 (K562) [µM] | EC50 ([2]; Homo sapiens, 48 h) [µM] | Emax ([2]; Homo sapiens, 48 h) [%] | further results |
| --- | --- | --- | --- | --- | --- | --- | --- | --- | --- | --- | --- | --- | --- | --- | --- | --- |
| Nc1ccn([C@@H]2S[C@H](COP(=O)(NCc3ccccc3)OCc3ccc([N+](=O)[O-])o3)[C@@H](O)[C@@H]2O)c(=O)n1 (single isomer, unassigned) [Compound 103 (diastereoisomer 2)] | 1 to 10 | 1 to 10 | < 1 | 10 to 100 | 1 to 10 | < 1 | 1 to 10 | 10 to 100 | 1 to 10 | 1 to 10 | 1 to 10 | 1 to 10 | 1 to 10 | – | – | – |
| CC(C)(C)SSCCOP(=O)(NCc1ccccc1)OC[C@H]1S[C@@H](n2ccc(N)nc2=O)[C@@H](O)[C@@H]1O (single isomer, unassigned) [drawing 57] | – | – | – | – | – | – | – | – | – | – | – | – | – | ≥ 20 | 10 to 20 | – |
| CCOC(=O)COP(=O)(N[C@@H](CC(C)C)C(=O)OCC)OC[C@H]1S[C@@H](n2ccc(N)nc2=O)[C@@H](O)[C@@H]1O (single isomer, unassigned) [Compound 102b (diastereoisomer 1)] | 1 to 10 | – | – | – | 10 to 100 | – | – | – | – | – | – | – | – | – | – | IC50 (NCI-H69; Homo sapiens, NCI-H69, 72 h): 10 to 100 µM; IC50 (CCRF-CEM; Homo sapiens, 72 h): < 1 µM; IC50 (MDA-MB-231; Homo sapiens): 10 to 100 µM; IC50 (HL-60; Homo sapiens, HL-60, 72 h): 1 to 10 µM; IC50 (A498; Homo sapiens, A498, 72 h): 10 to 100 µM; IC50 (PANC-1; Homo sapiens): 10 to 100 µM; IC50 (HCT-116; Homo sapiens, HCT-116, 72 h): 10 to 100 µM; IC50 (MiaPACA-2; Homo sapiens, MIA PaCa-2, MiaPACA-2, 72 hr): 10 to 100 µM; IC50 (BxPC-3; Homo sapiens, BXPC-3, 72 h): 10 to 100 µM; IC50 (CFPAC-1; Homo sapiens, CFPAC-1, 72 h): 10 to 100 µM; IC50 (K562; Homo sapiens): 10 to 100 µM |
| CC(C)(C)SSCCOP(=O)(NCc1ccccc1)OC[C@H]1S[C@@H](n2ccc(N)nc2=O)[C@@H](O)[C@@H]1O (single isomer, unassigned) [drawing 58] | – | – | – | – | – | – | – | – | – | – | – | – | – | – | – | EC50 [2]: ≥ 20 µM; Emax (%) [2]: C (C>20%) |
| CCOC(=O)COP(=O)(N[C@@H](CC(C)C)C(=O)OCC)OC[C@H]1S[C@@H](n2ccc(N)nc2=O)[C@@H](O)[C@@H]1O (single isomer, unassigned) [Compound 102b (diastereoisomer 2)] | 10 to 100 | 10 to 100 | < 1 | 10 to 100 | 10 to 100 | 1 to 10 | 10 to 100 | 10 to 100 | 10 to 100 | 10 to 100 | 10 to 100 | 10 to 100 | 10 to 100 | – | – | – |
| COC(=O)COP(=O)(N[C@@H](CC(C)C)C(=O)OC)OC[C@H]1S[C@@H](n2ccc(N)nc2=O)[C@@H](O)[C@@H]1O (single isomer, unassigned) [Compound 104b (diastereoisomer 2)] | 10 to 100 | 10 to 100 | < 1 | 10 to 100 | 10 to 100 | < 1 | 10 to 100 | 10 to 100 | 10 to 100 | 10 to 100 | 10 to 100 | 10 to 100 | 10 to 100 | – | – | – |
| CC(=O)OC[C@H](C)NP1(=O)OC[C@H]2S[C@@H](n3ccc(N)nc3=O)[C@@H](O)C2O1 (stereo partly drawn) | – | – | – | – | – | – | – | – | – | – | – | – | – | ≥ 20 | > 20 | – |
| CCOC(=O)COP(=O)(N[C@@H](CC(C)C)C(=O)OCC)OC[C@H]1S[C@@H](n2ccc(N)nc2=O)[C@@H](O)[C@@H]1O (single isomer, unassigned) [drawing 51] | – | – | – | – | – | – | – | – | – | – | – | – | – | 10 to 20 | 0 to 10 | – |
